In patent US8247609B2, “Aminoacid derivatives containing a disulfanyl group in the form of mixed disulfanyl and aminopeptidase N inhibitors” (Pharamleads, priority 2005, dated 2012):
Like-named read-outs stand apart in the source and are kept apart here. Marks after values point to notes of the source that are not given here.

How the values were obtained:
[1] = Log Kow; format: physicochemical
[2] = Solubility in solvents; format: physicochemical
[3] = system: male OF1 mice; assay: Hot plate test (52° C., jump latency) in mice; format: in vivo, mouse; details: after administration per os of 200 m/kg (FIG. 2b)
[4] = system: male OF1 mice; assay: Hot plate test (52° C., jump latency) in mice; format: in vivo, mouse; details: for ED50: Mus musculus
Protocol: Hot plate test: this test relates to the licking and jumping reflex in mice on a plate heated at 52° C. (measurement of jump latency in the examples given). The results are expressed in % of maximum possible effect (% MPE), i.e., expressed as a percentage of analgesia, using the following equation:
Maximum latency time=240 seconds.
The results are expressed in term of mean±SEM. The differences observed are considered significant when the values of p are less than 0.05. The test used is an ANOVA test with a multiple comparison test.
Compound 15 is dissolved in a water/mannitol mixture (50 mg/ml). Jump latency times are measured 10 min after the injections by intravenous route.
Compound 15 is dissolved in a ethanol/Cremophor® EL/water mixture. Jump latency times are measured 10 min after intravenous injection.
Compound 15 is dissolved in an ethanol/PEG400/water 10/40/50 mixture.
Compounds 15 and A are dissolved in an ethanol/Cremophor EL/water 10/10/80 mixture. Jump latency times are measured 10 min after intravenous injection.
The analgesia produced by morphine or compound 15 in mice (male OF1) in the hot plate test (52° C.) was measured. Morphine in H2O/NaCl, 9/1000) or compound 15 dissolved in the vehicle EtOH/Cremophor El/water (10/10/80) is injected by IV. The results are measured 10 minutes after injection and latency time is 240 seconds (equation given in examples 15 and 17).
The analgesia produced by Δ^9 THC in mice (male OF1) in the plate hot test (52° C.) was measured. Δ^9 THC, dissolved in the vehicle EtOH/Cremophor EL/water (10/10/80), is injected by IV route. The results are measured 10 minutes after injection and latency time is 240 seconds (equation given in examples 15 and 17).
This test relates to the licking and jumping reflex in mice on a plate heated at 52° C. The results are expressed in % of maximum possible effect (% MPE), i.e., expressed as a percentage of analgesia, using the following equation:
Maximum latency time=240 s.
The mice weigh 25-30 grams.
Jump latency is measured 10 minutes after intravenous injection.

[5] = system: mice inoculated in their right paw with NCTC 2472 cells; assay: Osteosarcoma-induced thermal hyperalgesia, unilateral hot plate test; format: in vivo, mouse; details: for Antihyperalgesic effect when administered alone: compound 15 12.5 mg/kg 20 min before testing, or Gabapentin 6.25 mg/kg 60 min before testing
Excerpt: The comparison and possible facilitation of compound 15 analgesic effect by Gabapentin was investigated on the animal model of bone cancer induced by intraosteal inoculation of NCTC2472 tumor cells (Honoré P. et al., Neuroscience 98 (2000), 585-588 Mendez L. et al. J. Neurosci. Methods 113 (2002), 91-97).
The methods used to measure the analgenisc effects (antihyperalgesia and allodynia) of various compounds of this animal model have been described in details and are used (Menendez L. et al. Brain Res. 969 (2003), 102-109) in these series of experiments.
Osteosarcoma-induced thermal hyperalgesia measured by the unilateral hot plate test was inhibited by the oral administration of compound 15 (25 mg/kg). This inhibitory effect peaked 20-40 min after compound 15 administration, disappearing at time 60 (FIG. 4A).
At this concentration the antagonist is unable to enter the brain supporting a peripheral analgesic effects of compound 15. ** p≦0.01. […]

[6] = system: rat (male Sprague Dawley) with an inflamed paw; assay: Vocalization threshold on paw pressure, carrageenan-inflamed paw; format: in vivo; details: 100 mg/kg per os, 180 min after carrageenan, measured 20 min after administration
Protocol: b) Antinociceptive effect of compound 15 (100 mg/kg par os) on vocalization threshold when pressure is applied to the paw of a rat (male Sprague Dawley) with an inflamed paw, inflammation being induced by intraplantar injection of carrageenan.
Compound 15 and a vehicle (ethanol/polyethylene glycol (PEG) 400/water, 10/40/50) are administered 180 min after intraplantar injection of carrageenan (1% in saline solution).
The baseline for vocalization threshold when pressure is applied to the paw is measured before inflammation (B) and for the inflamed paw 20 min after injection of compound 15 or the vehicle. The results are given in table 3 and are expressed as mean±SEM, n=10. The differences observed are considered significant when the values of p are less than 0.05.

[7] = 1 mg/kg IV, 10 min after injection (Table 6)
[8] = 2.5 mg/kg IV, 10 min after injection (Table 6)
[9] = 5 mg/kg IV, 10 min after injection (Table 6)
[10] = 5 mg/kg IV, ethanol/Cremophor EL/water 10/10/80, 10 min after injection (Table 5)

1-(2-(1-(1-ethoxycarbonyloxyethoxycarbonyl)-2-hydroxypropylcarbamoyl)-3-thiophen-3-ylpropyldisulfanylmethyl)-3-methylsulfanylpropyl-ammonium trifluoroacetate [Compound 12e]
Log Kow [1]: 0.76

1-(2-(1-ethoxycarbonylmethyloxycarbonylethylcarbamoyl)-3-thiophen-3-yl-propyldi sulfanylmethyl)-3-methylsulfanylpropyl-ammonium trifluoroacetate [Compound 12d]
Log Kow [1]: 1.35

CSCCC(N)CSSCC(Cc1ccsc1)C(=O)NC(C)C(=O)OCC(COC(C)=O)OC(C)=O.O=C(O)C(F)(F)F (centres unmarked) [Compound 12a, 1-(2-(1-(2,3-diacetoxypropoxycarbonyl)-ethylcarbamoyl)-3-thiophen-3-ylpropyldisulfanylmethyl)-3-methylsulfanylpropyl-ammonium trifluoroacetate]
Log Kow [1]: 1.31

CSCCC(N)CSSCC(Cc1ccsc1)C(=O)NC(C)C(=O)OCCS(C)(=O)=O.O=C(O)C(F)(F)F (centres unmarked) [Compound 12b, 1-(2-(1-(2-methanesulfonylethoxycarbonyl)-ethylcarbamoyl)-3-thiophen-3-ylpropyldisulfanylmethyl)-3-methylsulfanylpropyl-ammonium trifluoroacetate]
Log Kow [1]: −0.13

CCOC(=O)OC(C)OC(=O)C(C)NC(=O)C(CSSCC(N)CCSC)Cc1ccsc1.O=C(O)C(F)(F)F (centres unmarked) [Compound 12c]
Log Kow [1]: 1.63

CSCCC(N)CSSCC(Cc1ccsc1)C(=O)NC(C)C(=O)OC(COC(C)=O)COC(C)=O.O=C(O)C(F)(F)F (centres unmarked) [Compound 12f, 1-(2-(1-(2-acetoxy-1-acetoxymethylethoxycarbonyl)-ethylcarbamoyl)-3-thiophen-3-ylpropyldisulfanylmethyl)-3-methylsulfanylpropyl-ammonium trifluoroacetate]
Log Kow [1]: 1.31

CSCCC(N)CSSCC(Cc1ccsc1)C(=O)NC(C)C(=O)OC(CO)CO.O=C(O)C(F)(F)F (centres unmarked) [Compound 12g, 1-(2-(1-(2-hydroxy-1-hydroxymethylethoxycarbonyl)-ethylcarbamoyl)-3-thiophen-3-ylpropyldisulfanylmethyl)-3-methylsulfanylpropyl-ammonium trifluoroacetate]
Log Kow [1]: −0.29

CSCCC(N)CSSCC(Cc1ccsc1)C(=O)NC(C)C(=O)OCC1OC(O)C(O)C(O)C1O.O=C(O)C(F)(F)F (centres unmarked) [Compound 12h, 1-(2-(1-(3,4,5,6-tetrahydroxytetrahydropyran-2-ylmethoxycarbonyl)ethylcarbamoyl)-3-thiophen-3-yl-propyldisulfanylmethyl)-3-methylsulfanylpropyl-ammonium trifluoroacetate]
Log Kow [1]: −1.15

CCOC(=O)OC(C)OC(=O)C(NC(=O)C(CSSCC(N)CCSC)Cc1ccccc1)C(C)O.O=C(O)C(F)(F)F (centres unmarked) [Compound 12i]
Log Kow [1]: 0.76

CSCCC(N)CSSCC(Cc1ccccc1)C(=O)NC(C(=O)OC(COC(C)=O)COC(C)=O)C(C)O.O=C(O)C(F)(F)F (centres unmarked) [Compound 12j, 1-(2-(1-(2-acetoxy-1-acetoxymethyl-thoxycarbonyl)-2-hydroxypropylcarbamoyl)-3-phenylpropyldisulfanylmethyl)-3-methylsulfanylpropyl-ammonium trifluoroacetate]
Log Kow [1]: 0.44

CCOC(=O)OC(C)OC(=O)CNC(=O)C(CSSCC(N)CCSC)Cc1ccccc1.O=C(O)C(F)(F)F (centres unmarked) [Compound 12k]
Log Kow [1]: 1.39

CCOC(=O)OC(C)OC(=O)CNC(=O)C(CSSC[C@@H](N)CCSC)Cc1ccccc1 (some centres unmarked) [Compound 15]
Solubility in ethanol/Tween®/water solvents [2]: soluble
Persistence of analgesic effect [3]: at least two hours
% analgesia [4, 7]: 46.4 ± 5.6 %
% analgesia [4, 8]: 56.3 ± 6.9 %
% analgesia ([4]; 2.5 mg/kg IV, ethanol/Cremophor EL/water, 10 min after injection): 56.2 ± 6.9 %
% analgesia ([4]; 2.5 mg/kg IV, ethanol/Tween 20/water, 10 min after injection): 48.4 ± 10.2 %
% analgesia ([4]; 2.5 mg/kg IV, ethanol/Tween 80/water, 10 min after injection): 44.7 ± 6.2 %
% analgesia [4, 9]: 87.6 ± 4.6 %
% analgesia [4, 10]: 87.6 ± 4.6 %
% analgesia ([4]; 10 mg/kg IV, water/mannitol vehicle, 10 min after injection, male mice): 33.4 ± 7.5 %
% analgesia ([4]; 20 mg/kg IV, water/mannitol vehicle, 10 min after injection, male mice): 59.2 ± 9.6 %
% analgesia ([4]; 40 mg/kg IV, water/mannitol vehicle, 10 min after injection, male mice): 90.2 ± 7.0 %
ED50 ([4]; 10 min, IV, ethanol/Cremophor EL/water, 10 min after injection (FIG. 1), read-out: ED50 (analgesic response)): 1.9 ± 0.4 mg/kg
ED50 ([4]; 10 min, IV, water/mannitol vehicle, 10 min after injection, read-out: Effective dose 50, ED50): 16.1 mg/kg
ED50 ([4]; per os 20 min before test, ethanol/PEG400/water 10/40/50 (FIG. 2a), read-out: ED50 (analgesic effect)): 135 mg/kg
Time at which inhibitory effect disappears ([5]; 25 mg/kg oral): 60
Time of peak inhibitory effect after administration ([5]; 25 mg/kg oral): 20 to 40 min
Osteosarcoma-induced thermal hyperalgesia ([5]; 25 mg/kg oral (FIG. 4A)): inhibited
Antihyperalgesic effect in presence of naloxone-methiodide ([5]; 25 mg/kg p.o. 20 min before testing, naloxone-methiodide 2 mg/kg i.p. 20 min before testing (FIG. 5)): completely inhibited
Effect on thermal latencies, inoculated versus control paws ([5]; 25 mg/kg p.o., 20 min after administration (FIG. 4B)): exclusively increases the latencies measured in the inoculated right paws
Antihyperalgesic effect when administered alone [5]: do not produce any antihyperalgesic effect
Vocalization threshold [6]: 292.5 ± 20.1 g

CSCCC(N)CSSCC(Cc1ccccc1)C(=O)NC(Cc1ccccc1)C(=O)OCc1ccccc1 (centres unmarked) [Compound A, reference compound]
Solubility in aqueous or hydrophilic solvents [2]: poorly soluble
% analgesia [4, 10]: 51.1 ± 7.6 %

NCC1(CC(=O)O)CCCCC1 [Gabapentin]
Antihyperalgesic effect ([5]; 6.25 mg/kg i.p., 60 minutes after injection (FIG. 6B)): subeffective
Antihyperalgesic effect ([5]; 12.5 mg/kg i.p., 60 minutes after injection): significant antihyperalgesic effect
Antihyperalgesic effect ([5]; 25 mg/kg i.p., 40 and 60 min after injection (FIG. 6A)): clear antihyperalgesic effect
Withdrawal latencies ([5]; 25 mg/kg i.p., 20 min after administration): No modification of withdrawal latencies
Antihyperalgesic effect ([5]; 25 mg/kg i.p., 60 minutes after injection): completely suppressed the hyperalgesic effect
Withdrawal latencies of contralateral paws ([5]; 6.25-25 mg/kg i.p.): None of these doses of Gabapentin modified the withdrawal latencies of contralateral paws
Antihyperalgesic effect when administered alone [5]: do not produce any antihyperalgesic effect

CN1CC[C@]23c4c5ccc(O)c4O[C@H]2[C@@H](O)C=C[C@H]3[C@H]1C5 [morphine, reference compound]
% analgesia [4, 7]: 45.5 ± 4.5 %
% analgesia [4, 8]: 66 ± 6.0 %
% analgesia [4, 9]: 100*** %
ED50 ([4]; iv, 10 min, read-out: ED50 (analgesic response)): 1.3 ± 0.2 mg/kg

CCCCCc1cc(O)c2c(c1)OC(C)(C)[C@@H]1CCC(C)=C[C@@H]21 [Δ^9 THC, Δ^9 tetrahydrocannabinol, reference compound]
% analgesia ([4]; 0.188 mg/kg IV, EtOH/Cremophor EL/water, 10 min after injection): 0.4 ± 3.9%
% analgesia ([4]; 0.375 mg/kg IV, EtOH/Cremophor EL/water, 10 min after injection): 18.2 ± 6.4%
% analgesia ([4]; 0.75 mg/kg IV, EtOH/Cremophor EL/water, 10 min after injection): 41.2 ± 12.7 %
% analgesia ([4]; 1.5 mg/kg IV, EtOH/Cremophor EL/water, 10 min after injection): 57.2 ± 10.9 %
